Measurements as given in US4528377A, “Substituted 3,4-diamino-1,2,5-thiadiazoles having histamine H2 -receptor antagonist activity” (Bristol-Myers Company, priority 1983, dated 1985).

What was measured:
[1] = test system: gastric acid secretion; test: Gastric antisecretory activity in the gastric fistula rat; format: in vivo, Long Evans rats; conditions: sc, relative to cimetidine
[2] = molecular target: T1, histamine H2-receptors (Cavia porcellus, UniProt P47747); test: Histamine H2-receptor antagonism, isolated guinea pig right atria assay; format: cell-based, Hartley strain guinea pigs; conditions: for Kb: Schild plot, 30-minute incubation, 95% confidence limits in parentheses, read-out: KB (dissociation constant); for Potency Ratio (cimetidine = 1.0): relative to cimetidine
T1 construct: The spontaneously beating right atrium was dissected free from other tissues; from tissue; host or cells: isolated right atrium of male Hartley strain guinea pigs
Description: Subsequent investigations by Hughes and Coret, Proc. Soc. […] Black et al., Agents and Actions, 3, 133 (1973) and Brimblecombe et al., Fed. […] The present comparative studies were carried out using a modification of the procedure reported by Reinhardt et al., Agents and Actions, 4, 217 (1974).
The spontaneously beating right atrium was dissected free from other tissues and a silk thread (4-0) attached to each end. […] Atrial contractions were recorded isometrically by means of a Grass FT 0.03 force displacement transducer and recordings of contractile force and rate were made with a Beckman RP Dynograph.

[3] = test system: peptic ulcer disease; conditions: clinical evaluation, Gray et al., Lancet, 1, 8001 (1977); cited from earlier work

T1 sequence (P47747 whole entry): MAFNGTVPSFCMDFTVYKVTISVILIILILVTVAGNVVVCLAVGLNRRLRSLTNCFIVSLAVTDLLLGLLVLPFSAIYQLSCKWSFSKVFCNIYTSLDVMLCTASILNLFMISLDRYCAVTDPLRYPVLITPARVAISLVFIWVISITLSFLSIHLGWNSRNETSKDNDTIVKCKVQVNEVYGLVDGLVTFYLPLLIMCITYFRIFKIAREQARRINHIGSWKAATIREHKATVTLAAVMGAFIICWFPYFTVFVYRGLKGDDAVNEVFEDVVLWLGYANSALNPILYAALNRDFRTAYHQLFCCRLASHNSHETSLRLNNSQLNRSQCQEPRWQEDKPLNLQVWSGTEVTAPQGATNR

| Kb [2] [nM] | Potency Ratio (cimetidine = 1.0) [2] | SMILES | Potency Ratio (cimetidine = 1.0) [1] | effect in treatment of peptic ulcer disease [3] |
| --- | --- | --- | --- | --- |
| 3 | 137 | Nc1nsnc1NCCCOc1cccc(CN2CCCCC2)c1 [Example 1, 3-Amino-4-[3-(3-piperidinomethylphenoxy)propylamino]-1,2,5-thiadiazole] | 37 | – |
| – | – | CN(C)Cc1ccc(CSCCNc2nsnc2N)o1 [Example 2, 3-Amino-4-{2-[(5-dimethylaminomethyl-2-furyl)methylthio]ethylamino}-1,2,5-thiadiazole] | 4.5 | – |
| – | – | Cc1cc(CSCCNc2nsnc2N)sc1CN(C)C [Example 3, 3-Amino-4-{2-[(5-dimethylaminomethyl-4-methyl-2-thienyl)methylthio]ethylamino}-1,2,5-thiadiazole] | ~ 7 | – |
| 4 | 102 | Nc1nsnc1NCCCOc1cccc(CN2CCCC2)c1 [Example 4, 3-Amino-4-[3-(3-pyrrolidinomethylphenoxy)propylamino]-1,2,5-thiadiazole] | 20 | – |
| – | – | CN/C(=N/CCSCc1nc[nH]c1C)NC#N [cimetidine] | – | effective therapeutic agent in the treatment of peptic ulcer disease |
